{
  "source": "BindingDB's records for doi:10.1016/0960-894X(94)85036-4",
  "about": "(1994)",
  "target": "Type-1 angiotensin II receptor (Rattus norvegicus)",
  "assay": "[…] inhibitory concentration against Angiotensin II receptor, type 1 of rat adrenal membrane",
  "data": [
    {"smiles": "CCCCOC(=O)NS(=O)(=O)c1ccccc1-c1ccc(Cn2c(CCCC)nc3ccc(NC(=O)N(C)C(C)C)cc3c2=O)cc1", "note": "[2-Butyl-3-(2'-(butyloxycarbonylaminosulphonyl)-biphenyl-4-ylmethyl)-6-(N-isopropyl-N-methyl-aminocarbonylamino)-3H-quinazolin-4-one]", "values": [
      {"measurement": "IC50", "value": 4, "unit": "nM"}
    ]}
  ]
}
